Peptide text beside a SMILES is read from it.
Experiments:
E. coli ClpP [1] = target: T1, E. coli ClpP (Escherichia coli, UniProt P0A6G7); assay: Surface plasmon resonance binding to immobilized ClpP; settings: 80 µM, injected over 7 min, 30 min dissociation
T1 construct: His-tag; made in house; host or cells: E. coli SG1146a
Protocol: E. coli ClpP (80 μg/mL) protein was immobilized, using amine coupling (SPR-AS-HCA-03, Bruker Daltonics Inc., Billerica, MA, USA), onto the surface of the sensor chip of a SIERRA SPR-16 instrument (Bruker Daltonics GmbH, Bremen, Germany). ClpP protein was dissolved in acetate at pH 4. The running buffer contained 150 mM NaCl, 10 mM Hepes, 3 mM EDTA, and 0.05% (v/v) Tween-20. The flow rate for protein immobilization was 10 μL/min. Binding experiments were carried out using running buffer with the addition of 0.8% (v/v) of DMSO and 80 µM test substance (flow rate of 20 μL/min for 7 min and up to 30 min of dissociation time). […] SPR data were analyzed using the Analyzer 3 software (Bruker Daltonics GmbH), which includes algorithms for subtracting reference signals and accounting for non-specific interactions between the solvent and the sensor chip surface.

E. coli ClpP [2] = target: T1, E. coli ClpP; assay: Fluorescence-based E. coli ClpP proteolytic activity assay (Suc-LY-AMC), primary screen and dose-response; assay type: biochemical; settings: for inhibition at 200 µM: read-out: E. coli ClpP inhibition [%] in the primary screen, primary screen, 200 µM; for Inhibition (%) at 200 μM E. coli ClpP: 200 μM compound concentration; for IC50: read-out: E. coli ClpP IC50
Protocol: Briefly, 25 ng/μL of E. coli ClpP dissolved in a buffer containing 100 mM NaCl, 100 mM 4-(2-hydroxyethyl)-1-piperazineethanesulfonic acid (HEPES) pH 7.5, and 0.05% Brij® 35 were transferred into each well. Test compound addition (final concentration 200 µM) was carried out using an Echo® 550 liquid handling system (Labcyte, Sunnyvale, CA, USA). […] Changes in fluorescence (excitation 350 nm, emission 435 nm) were monitored at 1 min intervals at 30 °C over 1 h using an Infinite M1000 microplate reader (Tecan).
The assay was carried out as described above with increasing concentrations of test compounds. Dose-response experiments were done at least 3 times independently, each in technical triplicates.
Calculation of Z prime (Z’) for HTS assay performance was done according to Zhang et al.. Plates were considered for further analyses if Z’ > 0.6 [26].

HTC-116 cells = assay: in vitro; assay type: cell-based; settings: for IC50: 48 h incubation, 1:3 dilutions starting from 200 μM, read-out: Cytotoxicity HTC-116 IC50
Protocol: (§1) Potential cell toxicity of the tested compounds was evaluated by ATP quantification using the CellTiter-Glo® luminescent cell viability assay (Promega, Madison, WI, USA). […] After incubation, 20 µL of CellTiter-Glo® reagent were added per well and incubated at room temperature in the dark for another 30 min. Luminescence was quantified by an EnVision multi-plate reader (PerkinElmer, Rodgau, Germany).

MCF-7 cells = assay: in vitro; assay type: cell-based; settings: for IC50: 48 h incubation, 1:3 dilutions starting from 200 μM, read-out: Cytotoxicity MCF-7 IC50
Protocol: as §1

A549 cells = assay: in vitro; assay type: cell-based; settings: for IC50: 48 h incubation, 1:3 dilutions starting from 200 μM, read-out: Cytotoxicity A549 IC50
Protocol: as §1

E. coli JW0427 (ΔclpP) = assay: Growth delay under nitric oxide stress (DPTA NONOate) in M9 medium, clpP-deficient strain; assay type: cell-based
Protocol: (§2) Assessment of E. coli growth delay in presence of nitric oxide stress was carried out following our recently published protocol, which is an adaptation of the method reported by Robinson and Brynildsen to a 96-well plate format. Fresh MHB medium was inoculated with isolated colonies of E. coli BW25-113 or E. coli JW0427-1, grown on Luria Agar, and left overnight in a shaking incubator (250 rpm) at 37 °C. On the following day, the overnight culture was used to inoculate fresh M9 medium (supplemented with 10 mM glucose) 1:100, and was grown until OD600 ~0.3. Afterwards, the culture was transferred into 96-well, flat-bottom, sterile clear plates (#167008, Nunc, VWR). Bacterial OD600 was adjusted to 0.1 with M9 medium (supplemented with 10 mM glucose). Test compounds were transferred into the 96-well plates, followed by addition of the bacterial culture. Nitric oxide stress was induced by addition of 2 mM DPTA NONOate ((Z)-1-[N-(3-aminopropyl)-N-(3-ammoniopropyl)amino]diazen-1-ium-1,2-diolate, Cayman Chemical, Ann Arbor, MI, USA), dissolved in NaOH (final concentration 0.14 mM). Absorbance measurements (600 nm) were done with a Multiskan GO or Varioskan LUX plate reader (Thermo Fisher Scientific, Finland) at hourly intervals for 24 h. Between measurements, plates were incubated in a shaking incubator (500 rpm) at 37 °C.

[3] = tested on: E. coli BW25-113 (wild type); assay: Growth delay under nitric oxide stress (DPTA NONOate) in M9 medium, wild type; assay type: cell-based; settings: M9 minimal medium
Protocol: as §2

[4] = dose-response, 1:3 dilution starting from 200 μM, substrate Suc-LY-AMC

T1 sequence (P0A6G7 15-207): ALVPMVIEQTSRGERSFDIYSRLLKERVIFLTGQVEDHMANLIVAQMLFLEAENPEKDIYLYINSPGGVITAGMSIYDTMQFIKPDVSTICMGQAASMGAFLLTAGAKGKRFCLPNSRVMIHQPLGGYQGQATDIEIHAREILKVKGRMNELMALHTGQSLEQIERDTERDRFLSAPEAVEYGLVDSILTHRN

## Cn1c(=O)c2c(ncn2C)n(C)c1=O [caffeine]
E. coli ClpP [1]
  Covalent / irreversible binding to ClpP by SPR: did not show any interaction

## N=C(N)N/N=C/c1c(Cl)cccc1Cl [guanabenz]
E. coli ClpP [2]; [4]
  E. coli ClpP IC50: did not confirm as ClpP inhibitor
E. coli ClpP [2]; primary screen, 200 µM
  E. coli ClpP inhibition [%] in the primary screen: > 90%
E. coli ClpP [2]
  inhibition at 200 µM: 100%

## N#CC(C#N)=C(N)/C(C#N)=C/c1cc(O)c(O)c(O)c1 [Tyrphostin 51]
E. coli ClpP [2]
  inhibition at 200 µM: 72.8%

## COC(=O)N[C@H](C(=O)N[C@@H](Cc1ccccc1)[C@@H](O)CN(Cc1ccc(-c2ccccn2)cc1)NC(=O)[C@@H](NC(=O)OC)C(C)(C)C)C(C)(C)C [Atazanavir]
E. coli ClpP [2]
  inhibition at 200 µM: 85%

## CCOC(=O)[C@@H](N)CCC(=O)N[C@@H](CSCc1ccccc1)C(=O)N[C@@H](C(=O)OCC)c1ccccc1 [Ezatiostat]
E. coli ClpP [2]; primary screen, 200 µM
  E. coli ClpP inhibition [%] in the primary screen: 88.80%

## O=C(CCC1CCCC1)NCCN1CCOCC1 [3-cyclopentyl-N-[2-(4-morpholinyl)ethyl]propanamide]
E. coli ClpP [2]; primary screen, 200 µM
  E. coli ClpP inhibition [%] in the primary screen: 84.44%

## N.N.O=C([O-])C1(C(=O)[O-])CCC1.[Pt+2] [carboplatin]
E. coli ClpP [2]; primary screen, 200 µM
  E. coli ClpP inhibition [%] in the primary screen: 5.4%

## CO[C@H]1/C=C/O[C@@]2(C)Oc3c(C)c(O)c4c(O)c(c(/C=N/N5CCN(C6CCCC6)CC5)c(O)c4c3C2=O)NC(=O)/C(C)=C\C=C\[C@H](C)[C@H](O)[C@@H](C)[C@@H](O)[C@@H](C)[C@H](OC(C)=O)[C@@H]1C [Rifapentine]
E. coli ClpP [2]
  inhibition at 200 µM: 71.5%

## O=C(O)CCNC(=O)c1ccc(/N=N/c2ccc(O)c(C(=O)O)c2)cc1 [Balsalazide]
E. coli ClpP [2]
  inhibition at 200 µM: 76.5%

## CC(=O)Oc1ccccc1C(=O)Nc1ncc([N+](=O)[O-])s1 [Nitazoxanide]
E. coli ClpP [2]
  inhibition at 200 µM: 80%

## CO/N=C(\C(=O)N[C@@H]1C(=O)N2C(C(=O)O)=C(CSc3nc(=O)c(=O)[nH]n3C)CS[C@H]12)c1csc(N)n1 [ceftriaxone]
E. coli ClpP [2]
  inhibition at 200 µM: -4.6 to 19.3%

## O=c1c(O)c(-c2cc(O)c(O)c(O)c2)oc2cc(O)cc(O)c12 [Myricetin]
E. coli ClpP [2]
  inhibition at 200 µM: 76%

## CCN(CC)CCNC(=O)c1c(C)[nH]c(/C=C2\C(=O)Nc3ccc(F)cc32)c1C [Sunitinib Malate]
E. coli ClpP [2]
  inhibition at 200 µM: 80.7%

## CCc1ccc(/C=C2/SC(=S)NC2=O)cc1 [10058-F4]
E. coli ClpP [2]; primary screen, 200 µM
  E. coli ClpP inhibition [%] in the primary screen: 72.82%

## O=C(O)Cn1c(C(=O)Nc2nc(-c3ccccc3Cl)cs2)cc2ccccc21 [SR 27897 hydrate]
E. coli ClpP [2]; primary screen, 200 µM
  E. coli ClpP inhibition [%] in the primary screen: 84.71%

## N#CC(C#N)=Cc1ccc(O)c(O)c1 [Tyrphostin 23]
E. coli ClpP [2]
  inhibition at 200 µM: 79.3%

## C[n+]1ccccc1CC(=O)c1ccc(Br)cc1.[I-] [S 24795]
E. coli ClpP [2]; primary screen, 200 µM
  E. coli ClpP inhibition [%] in the primary screen: 76.27%

## O=C(O)c1cc(/N=N/c2ccc(S(=O)(=O)Nc3ccccn3)cc2)ccc1O [Sulfasalazine]
E. coli ClpP [2]
  inhibition at 200 µM: 77.3%

## CC1=C(/C=C/C(C)=C/C=C/C(C)=C/C(=O)Nc2ccc(O)cc2)C(C)(C)CCC1 [Retinoic acid p-hydroxyanilide]
E. coli ClpP [2]; primary screen, 200 µM
  E. coli ClpP inhibition [%] in the primary screen: 74.12%

## O=C(/C=C/c1ccc(O)cc1)CC(=O)/C=C/c1ccc(O)cc1 [Bisdemethoxycurcumin]
E. coli ClpP [2]
  inhibition at 200 µM: 76.5%

## CC(C)C[C@H](NC(=O)OCc1ccccc1)C(=O)N[C@@H](Cc1ccc(O)cc1)C(=O)CCl [Z-LY-CMK, benzyloxycarbonyl-leucyl-tyrosine chloromethyl ketone] (HELM PEPTIDE1{[O=C(OCc1ccccc1)[*:2]].L.Y.[ClC[*:1]]}$$$$V2.0)
E. coli ClpP [1]
  Covalent / irreversible binding to ClpP by SPR: irreversibly binding
HTC-116 cells
  IC50: 3.54 µM
HTC-116 cells; HTC-116
  Cytotoxicity HTC-116 Ratio (IC50 cytotoxicity/IC50 ClpP): 0.25
MCF-7 cells
  IC50: 0.05 µM
MCF-7 cells; MCF-7
  Cytotoxicity MCF-7 Ratio (IC50 cytotoxicity/IC50 ClpP): 0
A549 cells
  IC50: 7.15 µM
A549 cells; A549
  Cytotoxicity A549 Ratio (IC50 cytotoxicity/IC50 ClpP): 0.51
E. coli ClpP [2]
  Inhibition (%) at 200 μM E. coli ClpP: 98.6%
E. coli ClpP [2]; [4]
  IC50: 14 µM

## NCCCN(CCCN)/[N+]([O-])=N/O [DPTA NONOate, (Z)-1-[N-(3-aminopropyl)-N-(3-ammoniopropyl)amino]diazen-1-ium-1,2-diolate]
E. coli JW0427 (ΔclpP); ΔclpP E. coli, 2 mM DPTA NONOate, no test compound, M9 minimal medium
  Growth arrest by the NO• donor alone: ~ 4 h
[3]; wild-type strain, 2 mM DPTA NONOate, no test compound
  Growth arrest by the NO• donor alone: ~ 3 h

## N.N.[Cl][Pt][Cl] [Cisplatin, cisplatin]
E. coli ClpP [1]
  SPR signal (resonance units, RU): high RU values
HTC-116 cells
  IC50: 913 µM
MCF-7 cells
  IC50: 4.52 µM
A549 cells
  IC50: 86.7 µM
E. coli JW0427 (ΔclpP); clpP-deficient E. coli, DPTA NONOate, compared with cells without compound
  Growth delay in presence of nitric oxide stress: significantly longer growth delay
[3]; WT E. coli, 50 μM compound plus DPTA NONOate
  Growth arrest in presence of DPTA NONOate: ~ 10 h
[3]; WT E. coli, 50 μM compound
  Bacterial growth in absence of NO• stress: comparable to the untreated bacteria
[3]; WT E. coli, 100 μM compound
  Bacterial growth in absence of NO• stress: affected bacterial growth
E. coli ClpP [2]
  Inhibition (%) at 200 μM E. coli ClpP: 96.5%
E. coli ClpP [2]; 200 μM, cisplatin was a hit in both screened libraries, second value of the cell
  Inhibition (%) at 200 μM E. coli ClpP, second value: 98.7%
E. coli ClpP [2]; [4]
  IC50: 31 µM
E. coli ClpP [2]; primary screen, 200 µM
  E. coli ClpP inhibition [%] in the primary screen: 96.54%
E. coli ClpP [2]; primary screen, 200 µM, cisplatin present in two libraries (SCREEN-WELL, LOPAC1280), second value
  E. coli ClpP inhibition [%] in the primary screen, second library: 98.67%
E. coli ClpP [2]; primary screen, 200 µM, listed as cisplatin
  E. coli ClpP inhibition [%] in the primary screen: > 90%

## CO[C@@]1(NC(=O)C2SC(=C(C(N)=O)C(=O)O)S2)C(=O)N2C(C(=O)O)=C(CSc3nnnn3C)CS[C@@H]21 (stereo partly shown) [cefotetan]
E. coli ClpP [2]
  inhibition at 200 µM: -4.6 to 19.3%

## O=C(O)C1CCCCC1C(=O)Nc1ccc(S(=O)(=O)NC2CCCCC2)cc1 (stereo not shown) [2-({4-[(cyclohexylamino)sulfonyl]anilino}carbonyl)cyclohexanecarboxylic acid]
E. coli ClpP [2]; primary screen, 200 µM
  E. coli ClpP inhibition [%] in the primary screen: 72.93%
